Experimental data from patent US12691110B2 (Massachusetts Eye and Ear Infirmary, priority 2022, dated 2026).

What was measured:
[1] = system: C-PVR cells; assay: CyQuant cell proliferation assay in human patient derived primary cultures of PVR; assay type: cell-based
Description: Twelve candidate drugs were tested at 2 concentrations at 72 hours for their effects on proliferation and cytotoxicity in C-PVR cells. […] Each anti-proliferative drug was tested at 2 concentrations determined by using the IC50 of each drug. The data was expressed as percent cell inhibition.
The cells were washed and the CyQuant Direct nucleic acid stain was added and incubated at 37 degrees in the incubator. Fluorescence read outs were measured at wavelengths as instructed in the protocol.

[2] = system: human PVR explants; assay: Ex vivo human PVR explant outgrowth and sprouting model; assay type: cell-based; settings: for total branch length of outgrowths: vehicle 167 mm; for sprouting distance from the explant (in words): 3-10 days
[3] = Homo sapiens, 72 hours, C-PVR cells
[4] = Homo sapiens, 5 μM, 72 hours, C-PVR cells

COc1cccc2c1C(=O)c1c(O)c3c(c(O)c1C2=O)C[C@@](O)(C(C)=O)C[C@@H]3O[C@H]1C[C@H](N)[C@H](O)[C@H](C)O1 [Daunorubicin]
reduction in proliferation ([1]; 15 nM, 72 hours, C-PVR cells): 50%
reduction in proliferation ([1]; 30 nM, 72 hours, C-PVR cells): 53%

O=C1CN=C(c2ccc[nH]2)c2cc(Cl)ccc2N1 [RUNX1 inhibitor, Ro5-3335]
inhibition of growth of C-PVR cells (in words) ([1]; 150 μM alone, 48 and 72 hours): efficacious at inhibiting growth of C-PVR cells

CC[C@@]1(O)C(=O)OCc2c1cc1n(c2=O)Cc2cc3c(CN(C)C)c(O)ccc3nc2-1 [Topotecan, topotecan]
decrease in proliferation ([1]; 40 nM, 72 hours, C-PVR cells): 54%
decrease in proliferation ([1]; 80 nM, 72 hours, C-PVR cells): 53%
inhibition of proliferation of C-PVR cells (in words) ([1]; concentrations of 40 nM and 80 nM, FIG. 1B): effectively inhibited the proliferation of C-PVR cells
total branch length of outgrowths ([2]; 40 nM (so in the source)): 34 mm
sprouting distance from the explant (in words) ([2]; 80 nM alone): statistically significant reduction in sprouting distance

Cn1c(CCCC(=O)O)nc2cc(N(CCCl)CCCl)ccc21 [bendamustine]
inhibition at 1 µM [1, 3]: 25%
inhibition at 5 µM [1, 4]: 20%

COC(=O)N[C@H](C(=O)N1CCC[C@H]1c1ncc(-c2ccc(-c3ccc(-c4cnc([C@@H]5CCCN5C(=O)[C@@H](NC(=O)OC)C(C)C)[nH]4)cc3)cc2)[nH]1)C(C)C [daclatsvir]
inhibition of cell proliferation ([1]; 5 μM, 72 hours, C-PVR cells): 16%

Nc1cccc2c1CN(C1CCC(=O)NC1=O)C2=O (stereo not shown) [lenalidomide]
inhibition of proliferation ([1]; concentration not given, 72 hours, C-PVR cells): 24%

CN1CCN(c2c(F)cc3c(=O)c(C(=O)O)cn4c3c2OCN4C)CC1 [marbofloxacin]
inhibition at 5 µM [1, 4]: 30%

N[C@@H](Cc1ccc(N(CCCl)CCCl)cc1)C(=O)O [melphalan, 4-[bis(2-chloroethyl)amino]-L-phenylalanine]
reduction of cell proliferation ([1]; 60 μM, 72 hours, C-PVR cells): 83%
inhibition at 30 µM ([1]; Homo sapiens, 30 μM, 72 hours, C-PVR cells): 74%
inhibition of proliferation of C-PVR cells (in words) ([1]; concentrations of 30 nM and 60 nM (so in the source), FIG. 1A): effectively inhibited the proliferation of C-PVR cells
sprouting distance from the explant (in words) ([2]; 30 μM alone): statistically significant reduction in sprouting distance
total branch length of outgrowths ([2]; 30 μM): 27.5 mm

Oc1ccc(C=Cc2cc(O)cc(O)c2)cc1 [resveratrol]
inhibition at 5 µM [1, 4]: 28%

CC(C)[C@H](O)C(=O)N[C@@H](C)C(=O)N[C@@H]1C(=O)N(C)CCc2ccccc21 [semagacestat]
inhibition at 1 µM [1, 3]: 28%
inhibition at 5 µM [1, 4]: 30%

Cc1cn([C@H]2C=C[C@@H](CO)O2)c(=O)[nH]c1=O [stavudine]
inhibition at 5 µM [1, 4]: 19%
